The record followed here is US5763596A, “C-4' modified adenosine kinase inhibitors” (Metabasis Therapeutics, Inc., priority 1996, dated 1998).

By IC50 is commonly meant the concentration needed to halve the response being measured. The ED50 is the dose that gives a 50% effect, or the effect in half of the subjects.

Data set [1] concerns Rats. Briefly: anti-inflammatory activity, carrageenan paw. The note with it: 10 mg/kg, swelling after 3 hours; for Carrageenan Paw (% inh) i.p.: 30 min before carrageenan; for Carrageenan Paw (% inh) p.o.: 1 h before carrageenan. It is filed as in vivo, rat. The protocol: Carrageenan (Type λ) was suspended in sterile PBS at 1% (w/v), autoclaved for 30 minutes, and stored at room temperature. Rats were pretreated with vehicle or AK inhibitor (10 mg/kg) by oral gavage or i.p. administration and the volume of the left hind paw was measured using a water displacement plethysmometer (Stoelting Co., Wood Dale, Ill.). One hour after oral treatment or 30 minutes after i.p. treatment, the rats were briefly anaesthetized, and 0.1 ml of the carrageenan solution was injected subcutaneously into the planar surface of the left hind paw. The ensuing paw swelling was measured by plethysmometry after 3 hours. The paw volume in milliliters was subtracted from the pre-injection paw volume. Data are presented in Table 8 as the percent inhibition of paw swelling in AK inhibitor treated animals, compared to vehicle treated control animals.
For orientation: The carrageenan paw model is a standard test of acute inflammation.

Data set [2] has as its target adenosine kinase. As to the kind of experiment: adenosine kinase (AK) inhibition. It is filed as biochemical, pig heart or recombinant human. The conditions noted are these: 0.5 μM [U-14C] adenosine, pH 7.0, 20 minutes. Here is the method:
Adenosine kinase activity was measured essentially as described by Yamada et al. (Yamada, Y., Goto, H., Ogasawara, N. (1988) Biochim. Biophys. Acta 660, 36-43.) with a few minor modifications. […] Natl. Acad. Sci. […] The reactions were incubated for 20 minutes at […] The assay was quenched upon spotting 30 μL aliquots onto 2 cm^2 pieces of Whatman DE81 anion exchange paper. The papersquares were washed for 3 minutes in 6 L distilled/deionized water to remove the unreacted adenosine. The washed squares were rinsed in 95% ethanol and dried in an oven at 100° C. for 10 minutes. The amount of ^14 C-AMP was quantified by scintillation counting.

The test system of data set [3] is Female SA rats. Briefly: liver toxicity, serum SGOT, SGPT and total bilirubin. The note with it: 2 x 37.5 μmol/kg i.v. infusion (total 75 μmol/kg), 12 h after second dose. On the set-up: unit not given here. It is filed as in vivo, rat. Here is the method:
Female SA rats (150-200 g) were anesthetized with halothane and cannulated via the internal jugular vein. The animals were allowed to recover for 3 days. […] Twelve hours later, an additional 37.5 μmol kg was infused over 40 minutes (total dose=75 μmol/kg). Twelve hours after the second dose, the animals were anesthetized with halothane and exsanguinated through the descending aorta. Serum was prepared and liver enzymes (serum glutamic-oxaloacetic transaminase (SGOT), serum glutamic-pyruvic transaminase (SGPT)) and total bilirubin in the serum samples were determined by a commercial laboratory.

The subject of data set [4] is male SA rats. Briefly: anticonvulsant activity, maximal electroshock (MES) model. It is filed as in vivo. The conditions noted are these: Rattus norvegicus, ip, 1 h before MES; >5 / <5: fewer / more than 50% of animals inhibited at 5 mg/kg in initial screen. Here is the method:
The anticonvulsant activity of the tested compounds was evaluated in male SA rats (100-150 g, Simonsen) using the maximal electroshock (MES) model described in Swinyard et al., Antiepileptic Drugs, 3d Ed. at 85-102 (Levy, et al., eds.), NY: Raven Press (1989). The rats were maintained on a 12/12 light/dark cycle in temperature controlled facilities with free access to food and water. For p.o. administration, the animals are fasted overnight, prior to the experiment. One hour prior to seizure testing, the animals were injected interperitoneally (ip) or orally (per os, po) with one of various doses of test compound dissolved in DMSO or PEG 400.
Maximal electroshock seizures (MES) were induced by administering a 150 mA, 60 Hz current for 0.2 seconds via corneal electrodes using a Wahlquist Model H stimulator. […] This endpoint was expressed as the percentage of animals in which the response was inhibited. Typically, compounds were screened initially at one hour following a dose of 5 mg/kg ip. […] The results for exemplary compounds of the invention are set forth in Table 8, expressed as ED50 values.

The subject of data set [5] is Rats (male, Simonsen). Briefly: formalin paw model. It is filed as in vivo, rat. On the set-up: concentration or dose not given beside the values. The note with it: oral, 90 min before formalin. The protocol:
In this assay, injection of formalin, an irritant, into the hindpaw of rats typically evokes a biphasic response of pain-related behaviors. Phase 1 of the response which is brief, lasting approximately 0-5 min post-injection,is followed by a more prolonged phase 2, lasting approximately 10-80 min post-injection. Phase 1 behavior is thought to be a direct effect of the irritant on nociceptors at the injection site while phase 2 behavior is thought to include a hyperalgesic component mediated by sensitization of neuronal elements within the spinal cord. Studies from other laboratories have found the first portion of Phase 2 (sometimes referred to as Phase 2a) to be most responsive to pharmacological manipulation.
Rats (male, Simonsen) weighing between 100-200 g, are used in the present experiments. For screening purposes drugs are administered orally 90 min prior to initiation of formalin test. At designated intervals the animals in groups of 4 are placed individually in a small animal restrainer with the right hindpaw accessible through a hole in the bottom of the restrainer. The formalin paw assay is initiated by the injection using a 30G needle of 50 μl of a 5% formalin solution in saline into the right plantar surface of each hindpaw. The rat is then immediately placed in a separate plexiglass box and scoring (described below) of the animal's behavior is begun at 1.7 min after formalin injection. The instantaneous behavior of each animal in a group of 4 was observed and assigned a score once in each 20 second interval. This sequence is repeated over a 30 min period. The scoring protocol is an adaptation of the method published by Dubuisson and Dennis (Pain 4:161-174, 1977) which assigns a score from 0-3 as follows:
0--no discernible favoring of injected paw, weight evenly distributed
1--injected paw is favored, rests lightly on floor
2--injected paw is elevated
3--injected paw is vigorously licked, bitten or shake
Scores are continuously recorded directly onto an Excel spreadsheet. […] 2) the total number of incidences specifically of licking/biting behavior is summed over Phase 2 and mean values determined from 6 different animals with results expressed as % inhibition compared to vehicle control.

Data set [6] relates to male SA rats. As to the kind of experiment: rat skin lesion model, inhibition of neutrophil accumulation induced by carrageenan. It is filed as in vivo. The conditions noted are these: p.o., pretreatment 60 min. Here is the method: The dorsal skin of male SA rats was shaved and carrageenan (Type λ) or phosphate-buffered saline was injected intradermally. Three hours later, the injection sites were biopsied and weighed. Neutrophil content of the skin biopsies was measured as the quantity of myeloperoxidase (MPO) present in a tissue homogenate. The excised, weighed skin pieces were placed in 4 ml 0.5% mixed alkyl trimethylammonium bromide and homogenized at the highest speed for 15 seconds in a Polytron homogenizer (Brinkmann Instruments, Westbury, N.Y.). Lipids were extracted by adding 1 ml of dichloromethane to the homogenate, vortexing vigorously, and centrifuging at 1000 g, 5° C. for 15 min. Fifty μl of each supernatant was added in duplicate to a 96 well assay plate, along with dilutions of human myeloperoxidase standard. Potassium phosphate buffer (pH 6.1) containing 0.36 mg/ml of o-dianisidine dihydrochloride and 0.001% hydrogen peroxide was added (200 μl/well), and the absorbance at 450 nm was read after 5 min incubation at room temperature. The myeloperoxidase content of each skin piece was calculated from a standard curve constructed using least-square regression, and expressed as units of MPO/g of tissue.
AK inhibitors were administered orally using polyethylene glycol-400 as vehicle or intraperitoneally using dimethylsulfoxide as vehicle, at indicated time before skin lesion injection. For each experiment, the average of all values from saline-induced lesions was calculated. This baseline value was then subtracted from values obtained from carrageenan-induced lesions. Percent inhibition for AK inhibitors were calculated from these baseline-corrected values.

Structures can show the parent of a compound that is named as a salt.

Regarding `O[C@@H]1[C@H](O)CO[C@H]1n1cc(-c2ccccc2)c2c(Nc3ccc(Cl)cc3)ncnc21` [compound 299], in data set [1], the “Carrageenan Paw (% inh) i.p.” value is recorded as 20% and the “Carrageenan Paw (% inh) p.o.” value amounted to 28%. This compound also yielded a half-maximal inhibitory concentration (IC50) in data set [2] of 40 nM.
`O[C@@H]1[C@H](O)CO[C@H]1n1cc(-c2ccc(F)cc2)c2c(Nc3ccc(F)cc3)ncnc21` [#29]: in data set [3], the “average serum Total Bilirubin” value is given as 0.16, the “average serum content of SGOT” value is 130 and the “average serum content of SGPT” value turned out to be 30.
`C[C@]1(CO)O[C@@H](n2cc(-c3ccccc3)c3c(Nc4ccccc4)ncnc32)[C@H](O)[C@@H]1O` [compound 81]: in data set [2], it took 2000 nM to reach half-maximal inhibition (IC50).
In the case of `O[C@@H]1[C@H](O)CO[C@H]1n1cc(-c2ccccc2)c2c(Nc3ccc(CCN4CCOCC4)cc3)ncnc21` [compound 301], in data set [1], the “Carrageenan Paw (% inh) i.p.” value was 21% and the “Carrageenan Paw (% inh) p.o.” value was found to be 39%. Also, in data set [2], half-maximal inhibition (IC50) required 1 nM.
`COC[C@@]1(CO)O[C@@H](n2cc(-c3ccccc3)c3c(Nc4ccc(F)cc4)ncnc32)[C@H](O)[C@@H]1O` [compound 372] came in with an IC50 in data set [2] of 24 nM. For the same compound, in data set [4], the ED50 at 5 mg/kg is above 5 mg/kg.
`OCC1(CO)O[C@@H](n2cc(-c3ccccc3)c3c(Nc4ccccc4)ncnc32)[C@H](O)[C@@H]1O` [compound 1]: in data set [3], the “average serum Total Bilirubin” value is 0.1, the “average serum content of SGOT” value was 65 and the “average serum content of SGPT” value was found to be 53. In data set [1], the “Carrageenan Paw (% inh) i.p.” value turned out to be 3% and the “Carrageenan Paw (% inh) p.o.” value stood at 18%. Further, the IC50 in data set [2] turned out to be 1.2 nM.
As for `O[C@@H]1[C@H](O)CO[C@H]1n1cc(-c2ccccc2)c2c(Nc3ccc(CCN4CCNCC4)cc3)ncnc21` [#43, 4-N-[4-(2-(1-Piperazino)ethyl)phenyl]amino-5-phenyl-7-(β-D-erythrofuranosyl)pyrrolo[2,3-d]pyrimidine trihydrochloride salt], in data set [3], the “average serum Total Bilirubin” value is 0.1, the “average serum content of SGOT” value is on record as 99 and the “average serum content of SGPT” value came to 58. Further, in data set [1], the “Carrageenan Paw (% inh) i.p.” value is listed as 65% and the “Carrageenan Paw (% inh) p.o.” value is 34%. The compound further displayed a half-maximal inhibitory concentration (IC50) in data set [2] of 3.5 nM.
In data set [2], `CN(C)Cc1ccc(Nc2ncnc3c2c(-c2ccccc2)cn3[C@@H]2O[C@@](C)(CO)[C@@H](O)[C@H]2O)cc1` [compound 64] showed a half-inhibitory concentration (IC50) of 70 nM. This compound gave an ED50 at 5 mg/kg in data set [4] above 5 mg/kg.
In turn, `NC[C@]1(CO)O[C@@H](n2cc(-c3ccccc3)c3c(Nc4ccc(F)cc4)ncnc32)[C@H](O)[C@@H]1O` [compound 392] showed an IC50 in data set [2] of 1100 nM.
Turning to `O[C@H]1[C@H](n2cc(-c3ccccc3)c3c(Nc4ccc(F)cc4)ncnc32)OC2(CC2)[C@H]1O` [compound 150], in data set [3], the “average serum Total Bilirubin” value is listed as 1.58, the “average serum content of SGOT” value is given as 560 and the “average serum content of SGPT” value was 155. Moreover, in data set [1], the “Carrageenan Paw (% inh) i.p.” value is recorded as 78% and the “Carrageenan Paw (% inh) p.o.” value is on record as 80%. In data set [2], this compound showed an IC50 of 0.3 nM. In data set [4], the 50% effect level (ED50 at 5 mg/kg) was put at a dose of 0.23 mg/kg.
For the compound “4-N-Phenylamino-5-phenyl-7-(4-C-methyl-β-D-ribofuranosyl)pyrrolo[2,3- d]pyrimidine [#81]”, the “Carrageenan Paw (% inh) i.p.” value in data set [1] is recorded as 46%. In addition, the “% Inhibition Phase 1 Composite score” value in data set [5] (1.7-5 min post-formalin) came out at 24.8%. Also, the “% Inhibition Phase 2 Composite score” value in data set [5] (10.3-30 min post-formalin) turned out to be 35.1%. Further, the “% Inhibition Phase 2. Licking/biting” value in data set [5] (Phase 2) was 67.8%. Moreover, the “% inhibition of neutrophil accumulation” value worked out at 0% in data set [6] (10 mg/kg), 26% in data set [6] (20 mg/kg) and 40% in data set [6] (30 mg/kg). Further, the IC50 in data set [2] came out at 45 nM.
Take `O[C@@H]1[C@H](O)CO[C@H]1n1nc(-c2ccc(Cl)cc2)c2c(Nc3ccccc3)ncnc21` [compound 432]: in data set [1], the “Carrageenan Paw (% inh) i.p.” value turned out to be 24% and the “Carrageenan Paw (% inh) p.o.” value is 15%. Besides, 90 nM corresponded to half-maximal inhibition in data set [2] (IC50). In data set [4], this compound had an ED50 at 5 mg/kg above 5 mg/kg.
`COC[C@]1(CO)O[C@@H](n2cc(-c3ccccc3)c3c(Nc4ccc(F)cc4)ncnc32)[C@H](O)[C@@H]1O` [compound 352]: the half-inhibitory concentration (IC50) in data set [2] came to 400 nM.
Consider `Nc1ncnc2c1c(I)cn2[C@@H]1OC2(CC2)[C@@H](O)[C@H]1O` [compound 175], for which the half-inhibitory concentration (IC50) in data set [2] worked out at 600 nM.
In the case of `Nc1ncnc2c1c(I)cn2[C@@H]1OC[C@@H](O)[C@H]1O` [compound 300], in data set [1], the “Carrageenan Paw (% inh) i.p.” value was found to be 90% and the “Carrageenan Paw (% inh) p.o.” value turned out to be 91%. In data set [2], this compound displayed an IC50 of 6 nM.
